From ChEMBL document CHEMBL4177615 (Bioorg Med Chem, 2017)

Columns and labels:
[1] = tested on: Plasmodium falciparum; test: Antimalarial activity against Plasmodium falciparum 3D7 infected in ARh+ human erythrocytes at 10 uM after 42 to 48 hrs by Picogreen staining-based 96 well microplate assay; type: functional; details: read-out: GI
[2] = tested on: Plasmodium falciparum; test: Antimalarial activity against Plasmodium falciparum 3D7 infected in ARh+ human erythrocytes after 42 to 48 hrs by Picogreen staining-based 96 well microplate assay; type: functional, organism-based
[3] = tested on: Plasmodium falciparum; test: Antimalarial activity against Plasmodium falciparum 3D7 infected in ARh+ human erythrocytes at 0.1 uM after 42 to 48 hrs by Picogreen staining-based 96 well microplate assay; type: functional; details: read-out: GI
[4] = tested on: Plasmodium falciparum; test: Antimalarial activity against Plasmodium falciparum 3D7 infected in ARh+ human erythrocytes at 1 uM after 42 to 48 hrs by Picogreen staining-based 96 well microplate assay; type: functional; details: read-out: GI
[5] = tested on: Plasmodium falciparum; test: Antimalarial activity against Plasmodium falciparum 3D7 infected in ARh+ human erythrocytes at 0.01 uM after 42 to 48 hrs by Picogreen staining-based 96 well microplate assay; type: functional; details: read-out: GI
[6] = tested on: hERG (KCNH2); test: Selectivity index, ratio of IC50 for inhibition of human ERG expressed in Xenopus laevis oocytes to IC50 for Plasmodium falciparum 3D7; type: toxicity, cell-based; details: read-out: Ratio IC50
[7] = biological target: Voltage-gated inwardly rectifying potassium channel KCNH2 (Homo sapiens, UniProt Q12809); test: Inhibition of human ERG expressed in Xenopus laevis oocytes by two-electrode voltage clamp assay; type: cell-based
Voltage-gated inwardly rectifying potassium channel KCNH2, sequence (Q12809 whole entry): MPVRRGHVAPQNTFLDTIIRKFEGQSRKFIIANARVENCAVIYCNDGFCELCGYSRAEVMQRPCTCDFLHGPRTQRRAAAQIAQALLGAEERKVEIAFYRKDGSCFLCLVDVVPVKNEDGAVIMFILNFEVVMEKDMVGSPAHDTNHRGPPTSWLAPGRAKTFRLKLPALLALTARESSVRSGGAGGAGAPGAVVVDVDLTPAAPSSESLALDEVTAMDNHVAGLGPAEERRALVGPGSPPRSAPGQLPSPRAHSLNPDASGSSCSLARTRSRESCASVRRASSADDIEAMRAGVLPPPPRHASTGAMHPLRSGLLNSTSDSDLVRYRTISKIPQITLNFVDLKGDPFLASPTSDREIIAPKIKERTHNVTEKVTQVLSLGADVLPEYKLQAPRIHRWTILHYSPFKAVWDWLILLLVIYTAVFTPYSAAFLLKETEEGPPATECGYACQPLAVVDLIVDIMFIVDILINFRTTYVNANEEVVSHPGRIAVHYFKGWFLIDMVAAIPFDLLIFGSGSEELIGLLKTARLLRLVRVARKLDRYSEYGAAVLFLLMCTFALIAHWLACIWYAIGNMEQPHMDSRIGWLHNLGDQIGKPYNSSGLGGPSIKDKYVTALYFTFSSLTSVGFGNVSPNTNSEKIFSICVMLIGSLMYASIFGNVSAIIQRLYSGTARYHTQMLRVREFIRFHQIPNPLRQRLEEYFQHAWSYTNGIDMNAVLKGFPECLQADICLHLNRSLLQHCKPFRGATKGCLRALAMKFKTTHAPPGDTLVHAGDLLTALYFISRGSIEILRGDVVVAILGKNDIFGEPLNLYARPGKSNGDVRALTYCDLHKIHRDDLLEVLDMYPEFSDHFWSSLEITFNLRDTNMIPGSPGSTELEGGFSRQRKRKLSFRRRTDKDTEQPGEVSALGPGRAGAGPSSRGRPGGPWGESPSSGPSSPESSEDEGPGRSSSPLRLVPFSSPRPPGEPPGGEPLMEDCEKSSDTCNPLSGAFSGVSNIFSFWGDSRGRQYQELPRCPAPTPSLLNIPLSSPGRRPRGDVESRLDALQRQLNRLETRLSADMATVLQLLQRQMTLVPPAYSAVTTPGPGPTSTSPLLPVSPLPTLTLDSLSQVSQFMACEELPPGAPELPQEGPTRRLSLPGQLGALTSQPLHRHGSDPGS

[8] = tested on: Plasmodium falciparum; test: Antiplasmodial activity against Plasmodium falciparum K1 at 0.002 to 100 ug/ml by serial drug dilution assay; type: functional, organism-based

Structure (SMILES) | inhibition of growth at 10 µM [1] | IC50 [2] | inhibition of growth at 0.1 µM [3] | inhibition of growth at 1 µM [4] | inhibition of growth at 0.01 µM [5] | selectivity ratio [6] | IC50 [7] | IC50 [8]
COc1ccc(CCN2CCC(Nc3nc4ccccc4n3Cc3ccc(F)cc3)C2)cc1 (stereo unspecified) | 67% | 5320 nM | 0% | 14% | 0% | – | – | –
COc1ccc(CCN2CCN(c3nc4ccccc4n3Cc3ccc(F)cc3)CC2)cc1 | 57% | 6530 nM | 0% | 21% | 0% | – | – | –
CCCCCCCCCCn1c(NC2CCN(CCc3ccc(OC)cc3)CC2)nc2ccccc21 | 100% | 50 to 113 nM | 77% | 100% | 0% | 18.4 | 2070 nM | –
CCCCCCCCn1c(NC2CCN(CCc3ccc(OC)cc3)CC2)nc2ccccc21 | 100% | 29 to 29.6 nM | 93% | 96% | 4% | 110 | 3270 nM | –
COc1ccc(CCN2CCC(Nc3nc4ccccc4n3CC3CCCCC3)CC2)cc1 | 100% | 39.4 to 44 nM | 80% | 100% | 1% | 0.1 | 3.27 nM | –
COc1ccc(CCN2CCC(Nc3nc4ccccc4n3Cc3ccc(F)cc3F)CC2)cc1 | 80% | 85 to 102 nM | 55% | 100% | 0% | 1.7 | 178 nM | –
COc1ccc(CCN2CCC(Nc3nc4ccccc4[nH]3)CC2)cc1 | 100% | 78 to 79.7 nM | 52% | 100% | 6% | 2.1 | 164 nM | –
COc1ccc(CCN2CCC(Nc3nc4ccccc4n3CCC(C)C)CC2)cc1 | 97% | 28 to 92 nM | 54% | 100% | 0% | 7.6 | 212 nM | –
COc1ccc(CCN2CCN(Cc3nc4ccccc4n3Cc3ccc(F)cc3)CC2)cc1 | 72% | 4640 nM | 0% | 12% | 3% | – | – | –
CN(C)CCC=C1c2ccccc2CCc2ccccc21 [AMITRIPTYLINE] | – | – | – | – | – | – | – | 500 nM
COc1ccc(CCN2CCC(Nc3nc4ccccc4n3Cc3ccc(F)cc3)CC2)cc1 [ASTEMIZOLE] | 99% | 162 to 171 nM | 37% | 91% | 0% | – | – | –
OCCN1CCN(CCCN2c3ccccc3Sc3ccc(C(F)(F)F)cc32)CC1 [FLUPHENAZINE] | – | – | – | – | – | – | – | 500 nM
CNCCC=C1c2ccccc2CCc2ccccc21 [NORTRIPTYLINE] | – | – | – | – | – | – | – | 500 nM
CN(C)CCCN1c2ccccc2Sc2ccccc21 [PROMAZINE] | – | – | – | – | – | – | – | 500 nM
Fc1ccc(Cn2c(NC3CCNCC3)nc3ccccc32)cc1 [TECASTEMIZOLE] | 100% | 2300 nM | 0% | 17% | 5% | – | – | –
